Data as given in US20230052601A1, “HALO ACTIVE AROMATIC SULFONAMIDE PHARMACEUTICAL COMPOSITIONS FOR INTERNAL USE” (priority 2021, published 2023).

Tested on: P. aeruginosa
Assay: Flame burn injury with subcutaneous P. aeruginosa infection in mice, survival (Example 3)
Format: in vivo
Settings: burned mice infected with P. aeruginosa; 1 mg then six doses of 0.5 mg subcutaneously; observed seven days; five treated animals; controls 4 of 11 survived; Fisher exact 0.0337
Description: Adult mice (n=16) received a ˜20% flame burn injury, followed by resuscitation with two doses of 0.5 mL of saline and […] of tramadol for analgesia. After 5 minutes, they were infected with P. aeruginosa subcutaneously under the burn wound. 20 minutes post injury, five of the animals received 1 mg of BENZ subcutaneously in 0.25 ml saline, followed by six doses of 0.5 mg of BENZ subcutaneously also in 0.25 ml saline, approximately 8-12 hours apart. The animals were observed several times daily for seven days.

For `O=C(O)c1ccc(S(=O)(=O)NCl)cc1` [BENZ, N-chloro-4-carboxybenzenesulfonamide], the “survival of treated animals” value was “all five survived”.
